# Assay results published in US9580449B2, “Compositions and methods for the production of pyrimidine and pyridine compounds with BTK inhibitory activity” (Merck Patent GmbH, priority 2011, dated 2017).
# Molecular target: full-length human BTK (Homo sapiens (Human), UniProt Q06187)
# Assay: BTK IC50 enzyme assay (microfluidic off-chip mobility shift kinase assay)
# Assay type: biochemical
# Conditions: incubated for 90 min. at 27 C; read-out: Time Dependent BTK Enzyme Assay IC50
# Protocol: The following describes a microfluidic, off-chip mobility shift kinase assay used to measure inherent potency of compounds against BTK enzyme. Compounds described by embodiments of the present invention were assayed using this protocol and the data from the same is recorded in Table 2 within the column labeled: “Time Dependent BTK Enzyme Assay IC50”.
# Stopped reactions were monitored at −2 PSI, −3000 V/−700 V in a LabChip 3000 plate reader from Caliper Life Sciences, a PerkinElmer Company (Hopkinton, Mass.), and the activity was measured by off-chip mobility shift assay measuring the charge/mass difference between substrate and product resulting from peptide phosphorylation. IC50 and efficacy were determined by plotting log [Inhibitor] vs. % Activity in GeneData Screener (Basel, Switzerland). […] I<1 uM and II>1 uM.
# Chain of full-length human BTK (Q06187 whole entry): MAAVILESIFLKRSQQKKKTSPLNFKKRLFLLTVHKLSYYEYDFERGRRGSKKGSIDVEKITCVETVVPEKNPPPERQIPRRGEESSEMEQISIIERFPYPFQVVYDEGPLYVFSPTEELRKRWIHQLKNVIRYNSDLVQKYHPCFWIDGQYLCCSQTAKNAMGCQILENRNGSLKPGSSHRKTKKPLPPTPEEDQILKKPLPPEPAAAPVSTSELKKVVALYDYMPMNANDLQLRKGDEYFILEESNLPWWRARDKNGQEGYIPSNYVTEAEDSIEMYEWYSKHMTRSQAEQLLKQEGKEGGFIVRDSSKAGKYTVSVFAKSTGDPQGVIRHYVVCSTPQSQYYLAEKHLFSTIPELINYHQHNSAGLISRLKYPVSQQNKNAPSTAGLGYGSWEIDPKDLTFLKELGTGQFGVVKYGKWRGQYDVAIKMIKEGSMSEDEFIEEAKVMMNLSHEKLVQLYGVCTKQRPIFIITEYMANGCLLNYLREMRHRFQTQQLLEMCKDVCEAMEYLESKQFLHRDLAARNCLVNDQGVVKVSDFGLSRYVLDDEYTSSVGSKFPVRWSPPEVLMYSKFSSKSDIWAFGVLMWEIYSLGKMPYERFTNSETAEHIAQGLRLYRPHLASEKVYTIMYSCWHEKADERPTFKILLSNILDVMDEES
row,IC50 [nM],Structure (SMILES)
1,< 100,"CC#CC(=O)N1CCC(COc2ncnc(N)c2-c2ccc(Oc3ccccc3)cc2)CC1 [A9, 1-(4-(((6-amino-5-(4-phenoxyphenyl)pyrimidin-4-yl)oxy)methyl)piperidin-1-yl)but-2-yn-1-one]"
2,< 1000,"CN(C)C/C=C/C(=O)Nc1cccc(Oc2ccnc(N)c2-c2ccc(OCc3ccccc3)cc2)c1 [A152, (E)-N-(3-((2-amino-3-(4-(benzyloxy)phenyl)pyridin-4-yl)oxy)phenyl)-4-(dimethylamino)but-2-enamide]"
3,< 100,"C=CC(=O)Nc1cccc(Oc2ncnc(N)c2-c2ccc(OCc3cccc(F)c3)cc2)c1 [A260, N-(3-((6-amino-5-(4-((3-fluorobenzyl)oxy)phenyl)pyrimidin-4-yl)oxy)phenyl)acrylamide]"
4,< 100,"C=CC(=O)Nc1cccc(Oc2ncnc(N)c2-c2cnn(Cc3cccc(Cl)c3)c2)c1 [A191, N-(3-((6-amino-5-(1-(3-chlorobenzyl)-1H-pyrazol-4-yl)pyrimidin-4-yl)oxy)phenyl)acrylamide]"
5,> 1000,"C=CC(=O)N1CCC(CNc2ncnc(N)c2-c2cnn(Cc3ccccc3)c2)CC1 [A33, 1-(4-(((6-amino-5-(1-benzyl-1H-pyrazol-4-yl)pyrimidin-4-yl)amino)methyl)piperidin-1-yl)prop-2-en-1-one]"
6,< 1000,"C=CC(=O)N1CCC(CNc2ncnc(N)c2-c2ccc(Oc3ccc(C#N)cc3)cc2)CC1 [A86, 4-(4-(4-(((1-acryloylpiperidin-4-yl)methyl)amino)-6-aminopyrimidin-5-yl)phenoxy)benzonitrile]"
7,< 100,"C=CC(=O)Nc1cccc(Oc2ncnc(N)c2-c2ccc(NC(=O)c3ccccc3)cc2)c1 [A352, N-{4-[4-(3-Acryloylamino-phenoxy)-6-amino-pyrimidin-5-yl]-phenyl}-benzamide]"
8,< 100,"C=CC(=O)Nc1cccc(Nc2ncncc2-c2ccc(Oc3ccccc3)cc2)n1 [A167, N-(6-((5-(4-phenoxyphenyl)pyrimidin-4-yl)amino)pyridin-2-yl)acrylamide]"
9,< 100,"Nc1ncnc(Oc2cccc(NC(=O)CCl)c2)c1-c1ccc(OCc2ccccc2)cc1 [A347, N-{3-[6-Amino-5-(4-benzyloxy-phenyl)-pyrimidin-4-yloxy]-phenyl}-2-chloro-acetamide]"
10,> 1000,"CCC(=O)Nc1cccc(-c2c(Oc3ccc(Oc4ccccc4)cc3)ccnc2N)c1 [A310, N-(3-(2-amino-4-(4-phenoxyphenoxy)pyridin-3-yl)phenyl)propionamide]"
11,< 1000,"C=CC(=O)N1CC[C@@H](CNc2ncnc(N)c2-c2ccc(Oc3ccc(C#N)cc3)cc2)[C@H](O)C1 (racemic) [A199, 4-(4-(4-((((3S,4S)-1-acryloyl-3-hydroxypiperidin-4-yl)methyl)amino)-6-aminopyrimidin-5-yl)phenoxy)benzonitrile]"
12,> 1000,"Nc1cccc(Oc2ncnc(N)c2-c2ccc(Oc3ccccc3)cc2)c1 [A305, 6-(3-aminophenoxy)-5-(4-phenoxyphenyl)pyrimidin-4-amine]"
13,< 1000,"CN(C)C/C=C/C(=O)Nc1ccc(Oc2ncnc(N)c2-c2ccc(Oc3ccccc3)cc2)cc1 [A290, (E)-N-(4-((6-amino-5-(4-phenoxyphenyl)pyrimidin-4-yl)oxy)phenyl)-4-(dimethylamino)but-2-enamide]"
14,> 1000,"C=CC(=O)N1CCC(CNc2ncnc(N)c2-c2ccc(C(F)(F)F)cc2)CC1 [A81, 1-(4-(((6-amino-5-(4-(trifluoromethyl)phenyl)pyrimidin-4-yl)amino)methyl)piperidin-1-yl)prop-2-en-1-one]"
15,< 1000,"C=CC(=O)N1CCC(COc2ncnc(N)c2-c2ccc(Oc3ccccc3)cc2)CC1 [A338, 1-(4-(((6-amino-5-(4-phenoxyphenyl)pyrimidin-4-yl)oxy)methyl)piperidin-1-yl)prop-2-en-1-one]"
16,< 100,"C=CC(=O)Nc1cccc(-c2c(Oc3ccc(Oc4ccccc4)cc3)ccnc2N)c1 [A243, N-(3-(2-amino-4-(4-phenoxyphenoxy)pyridin-3-yl)phenyl)acrylamide]"
17,> 1000,"NCc1cccc(-c2cnccc2Oc2ccc(Oc3ccccc3)cc2)c1 [A316, (3-(4-(4-phenoxyphenoxy)pyridin-3-yl)phenyl)methanamine]"
18,< 100,"C=CC(=O)Nc1cccc(Oc2ncnc(N)c2-c2cnn(Cc3cccc(C(=O)OC)c3)c2)c1 [A206, methyl 3-((4-(4-(3-acrylamidophenoxy)-6-aminopyrimidin-5-yl)-1H-pyrazol-1-yl)methyl)benzoate]"

row,IC50 [nM],Structure (SMILES)
1,< 1000,"Nc1cccc(-c2c(Oc3ccc(Oc4ccccc4)cc3)ccnc2N)c1 [A300, 3-(3-aminophenyl)-4-(4-phenoxyphenoxy)pyridin-2-amine]"
2,< 100,"C=CC(=O)N1CCC(CNc2ncnc(N)c2-c2ccc(Oc3cccc(C(F)(F)F)c3)cc2)CC1 [A95, 1-(4-(((6-amino-5-(4-(3-(trifluoromethyl)phenoxy)phenyl)pyrimidin-4-yl)amino)methyl)piperidin-1-yl)prop-2-en-1-one]"
3,< 100,"C=CC(=O)Nc1ccc(Oc2ncnc(N)c2-c2ccc(Oc3ccccc3)cc2)cc1 [A280, N-(4-((6-amino-5-(4-phenoxyphenyl)pyrimidin-4-yl)oxy)phenyl)acrylamide]"
4,< 100,"C=CC(=O)N1CC[C@@H](CNc2ncnc(N)c2-c2cnn(Cc3ccccc3)c2)[C@H](O)C1 [A109, 1-((3S,4S)-4-(((6-amino-5-(1-benzyl-1H-pyrazol-4-yl)pyrimidin-4-yl)amino)methyl)-3-hydroxypiperidin-1-yl)prop-2-en-1-one]"
5,< 100,"C=CC(=O)Nc1ccc(F)c(Oc2ncnc(N)c2-c2ccc(Oc3ccccc3)nc2)c1 [A161, N-(3-((6-amino-5-(6-phenoxypyridin-3-yl)pyrimidin-4-yl)oxy)-4-fluorophenyl)acrylamide]"
6,< 1000,"C=CC(=O)N1CCC(CNc2ncnc(N)c2-c2cc(OC)c(OC)c(OC)c2)CC1 [A83, 1-(4-(((6-amino-5-(3,4,5-trimethoxyphenyl)pyrimidin-4-yl)amino)methyl)piperidin-1-yl)prop-2-en-1-one]"
7,< 100,"C=CC(=O)Nc1cccc(Oc2ncnc(N)c2-c2ccc(OCc3ccccc3)cc2F)c1 [A349, N-{3-[6-Amino-5-(4-benzyloxy-2-fluoro-phenyl)-pyrimidin-4-yloxy]-phenyl}-acrylamide]"
8,< 100,"Nc1ncnc(Oc2cccc(NC(=O)CCl)c2)c1-c1ccc(OCc2ccccc2)cc1F [A350, N-{3-(6-Amino-5-(4-benzyloxy-2-fluoro-phenyl)-pyrimidin-4-yloxy}-phenyl)-2-chloro-acetamide]"
9,< 100,"C=CC(=O)Nc1cccc(Oc2ncnc(N)c2-c2ccc(OCc3ccccc3OC)cc2)c1 [A254, N-(3-((6-amino-5-(4-((2-methoxybenzyl)oxy)phenyl)pyrimidin-4-yl)oxy)phenyl)acrylamide]"
10,< 100,"C=CC(=O)Nc1cccc(Oc2ncnc(N)c2-c2cnn(Cc3ccc(OC)cc3)c2)c1 [A72, N-(3-((6-amino-5-(1-(4-methoxybenzyl)-1H-pyrazol-4-yl)pyrimidin-4-yl)oxy)phenyl)acrylamide]"
11,> 1000,"C=CC(=O)N1CC2(CC(Oc3ncnc(N)c3-c3ccc(Oc4cccnc4)cc3)C2)C1 [A221, 1-(6-((6-amino-5-(4-(pyridin-3-yloxy)phenyl)pyrimidin-4-yl)oxy)-2-azaspiro[3.3]heptan-2-yl)prop-2-en-1-one]"
12,< 100,"CC=CC(=O)[C@H]1CCC[C@H](Nc2ncnc(N)c2-c2ccc(Oc3ccccc3)cc2)C1 [A144, 1-((1S,3S)-3-(6-Amino-5-(4-phenoxyphenyl)-pyrimidin-4-ylamino)-cyclohexyl)-but-2-en-1-one]"
13,> 1000,"C=CC(=O)Nc1ccc(Oc2ccncc2-c2ccc(Oc3ccccc3)cc2)cc1 [A297, N-(4-((3-(4-phenoxyphenyl)pyridin-4-yl)oxy)phenyl)acrylamide]"
14,< 1000,"C=CC(=O)NCCCCNc1ncnc(N)c1-c1ccc(Oc2ccccc2)cc1 [A50, N-(4-((6-amino-5-(4-phenoxyphenyl)pyrimidin-4-yl)amino)butyl)acrylamide]"
15,> 1000,"CCC(=O)Nc1ccc(Oc2ncnc(N)c2-c2ccc(Oc3ccccc3)cc2)cc1 [A308, N-(4-((6-amino-5-(4-phenoxyphenyl)pyrimidin-4-yl)oxy)phenyl)propionamide]"
16,< 1000,"C=CC(=O)N1CCC(CNc2ncnc(N)c2-c2ccc(Oc3ccccn3)cc2)CC1 [A335, 1-(4-(((6-amino-5-(4-(pyridin-2-yloxy)phenyl)pyrimidin-4-yl)amino)methyl)piperidin-1-yl)prop-2-en-1-one]"
17,> 1000,"C=CC(=O)NCc1cccc(-c2cnccc2Oc2ccc(Oc3ccccc3)cc2)c1 [A302, N-(3-(4-(4-phenoxyphenoxy)pyridin-3-yl)benzyl)acrylamide]"
18,> 1000,"C/C=C/C(=O)N1CCC(CNc2ncnc(N)c2-c2ccc(Oc3ccccc3)cc2)CC1 [A13, (E)-1-(4-(((6-amino-5-(4-phenoxyphenyl)pyrimidin-4-yl)amino)methyl)piperidin-1-yl)but-2-en-1-one]"

row,Structure (SMILES),IC50 [nM]
1,"C#CC(=O)N1C2CCC1CC(CNc1ncnc(N)c1-c1ccc(Oc3ccccc3)cc1)C2 (centres unmarked) [A68, 1-(3-(((6-amino-5-(4-phenoxyphenyl)pyrimidin-4-yl)amino)methyl)-8-azabicyclo[3.2.1]octan-8-yl)prop-2-yn-1-one]",< 100
2,"CCC(=O)N1CCC(CNc2ncnc(N)c2-c2ccc(Oc3ccccc3)cc2)CC1 [A333, 1-(4-(((6-amino-5-(4-phenoxyphenyl)pyrimidin-4-yl)amino)methyl)piperidin-1-yl)propan-1-one]",< 1000
